The values that follow come from PMC4297543 (Bioorganic & medicinal chemistry letters, 2014).

This assay concerns the target recombinant β-secretase (Homo sapiens, UniProt P56817). Description: β-secretase. It counts as biochemical.

recombinant β-secretase, sequence (P56817 46-501): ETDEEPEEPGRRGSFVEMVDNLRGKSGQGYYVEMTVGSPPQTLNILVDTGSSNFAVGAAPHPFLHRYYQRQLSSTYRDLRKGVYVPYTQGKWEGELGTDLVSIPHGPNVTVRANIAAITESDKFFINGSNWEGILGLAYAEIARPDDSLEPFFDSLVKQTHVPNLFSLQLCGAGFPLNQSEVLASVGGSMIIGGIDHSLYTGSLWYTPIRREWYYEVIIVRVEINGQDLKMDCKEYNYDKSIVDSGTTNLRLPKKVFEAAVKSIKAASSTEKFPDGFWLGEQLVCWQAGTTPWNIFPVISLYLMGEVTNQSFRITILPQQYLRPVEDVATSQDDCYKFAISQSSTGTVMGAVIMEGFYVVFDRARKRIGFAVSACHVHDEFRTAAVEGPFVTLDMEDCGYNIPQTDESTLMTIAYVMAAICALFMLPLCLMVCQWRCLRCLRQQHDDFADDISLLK

With `Cc1cc(C)n(C[C@@H](C)C(=O)N[C@@H](CNC(=O)OC(C)(C)C)C(=O)N[C@@H](CC(C)C)[C@@H](O)C[C@@H](C)C(=O)N[C@H](C(=O)NCC(C)C)C(C)C)n1` [Inhibitor 3b], the “drop in potency with respect to 3a” value (ratio of BACE1 Ki to that of 3a) is listed as approximately 40 fold.
Consider `Cc1csc(C[C@H](C)C(=O)N[C@@H](CNC(=O)OC(C)(C)C)C(=O)N[C@@H](CC(C)C)[C@@H](O)C[C@@H](C)C(=O)N[C@H](C(=O)NCC(C)C)C(C)C)n1` [Inhibitor 4c], for which the “improvement over inhibitor 4a” value (ratio of BACE1 potency to that of 4a) was “over 120 fold”.
